The values below come from patent US9617311B2, “Use of PEDF-derived polypeptides for promoting stem cells proliferation and wound healing” (Mackay Memorial Hospital, priority 2011, dated 2017).

Experiment [1] deals with basal cells of the hyper-proliferative epithelium. The experiment can be described thus: Cell replication at basal layer of HE tissue at day 4 post skin wounding, BrdU immunohistochemistry. Type of experiment: in vivo, C57L/B6 mice. To be noted: day 4 of skin ointment treatment; BrdU i.p. 3 hours before euthanasia; control wound 30.8±8.1%. The source says:
FIGS. 9A and 9B illustrate histological analysis of cell replication at day 4 post-skin wounding. FIG. 9A provides photographs in which specimens were immunehistologically stained with BrdU to observe DNA replication (deep brown color) and counterstained with hematoxylin to observe nuclei. […] (Original magnification, ×200). FIG. 9B is a histogram illustrating numbers of BrdU-positive cells at basal layer of HE tissue. A labeling index (%) was computed as the number of labeled cells divided by the total number of cells at basal layer of HE tissue. *P<0.05 versus control wound.
2×10^5 limbal cells (the 1st passage) were seeded at a slide coated with FNC COATING MIX® solution (Athena Enzyme Systems, Baltimore, Md.) and incubated with a culture medium for one day. BrdU (final, 10 μM) was added to the culture for 2 hours. After being fixed with 4% paraformaldehyde, cells were exposed to cold methanol for 2 minutes, and then treated with 1 N HCl at RT for 1 hour before performing immunofluorescence. For animal study, BrdU was reconstituted in DMSO as stock (80 mM). 10 μl of BrdU mixed with 90 μl of PBS was intraperitoneally injected into mouse 3 hours prior to euthanasia. DNA synthesis was assessed by BrdU labeling with anti-BrdU antibodies.
(§1) To perform full-thickness skin excision, 8- to 10-week-old C57L/B6 mice were respectively anesthetized by an intraperitoneal injection of a mixture of zoletil (6 mg/kg) and xylazine (3 mg/kg). Two full-thickness skin excisional wounds, 4 mm in diameter were made on either side of the dorsal midline using Sklar Tru-Punch disposable biopsy punch (Sklar, West Chester, Pa., USA). In each treatment group (n=6), the skin wound was treated with 25 μl skin ointment (containing 50 μM synthetic peptide and 0.006 μl DMSO vehicle) once daily after the skin scraping. In the control group (n=6), skin wound was treated with 25 μl of skin ointment with equal concentration of DMSO. Each gram of the above skin ointment contains 5 mg neomycin sulfate and 12.5 mg Bacitracin Zinc. Wounds were left uncovered and harvested 4 and 7 days after injury. Mice were housed individually during the healing period.
To investigate whether skin resurfacing process, which involves cell replication, is accelerated by 29-mer, Mo 29-mer, 20-mer, or Mo 20-mer, wounds were treated with skin ointment containing 29-mer, Mo 29-mer, 20-mer, or Mo 20-mer for 4 days, and then mice were intraperitoneally injected with BrdU for further 3 hours before euthanized. […] This observation was consistent with the thicker HE tissue treated with 29-mer or 20-mer.

For the next experiment, the system named is Lgr6-positive HFSCs. The experiment can be described thus: Distribution of Lgr6-positive HFSCs at HE tissue at day 4 post skin wounding, immunohistochemistry. To be noted: wounds treated for 4 days. In kind it is in vivo, C57L/B6 mice.
Excerpt: FIGS. 10A and 10B illustrate histological analysis of the distribution of HFSCs at day 4 post-skin wounding. FIG. 10A provides photographs in which specimens were immunehistologically stained with Lgr6 to observe HFSC-derived cells at HE tissue and counterstained with hematoxylin to observe nuclei. Original magnification, ×400. FIG. 10B presents photographs in which sections of 20-mer ointment-treated wound were stained with BrdU- and Lgr6-specific antibodies. Lgr6 is expressed in the cell nucleus as confirmed by Hoechst 33258 counterstaining.
as §1, with “Mice were housed individually during the healing period.” left out

The subject of the next experiment is LSCs in the limbus. The experiment can be described thus: In vivo LSC proliferation in limbus 24 hours after corneal wounding, BrdU/ΔNp63α double-immunostaining. On the set-up: species or system C57BL/6 mice. The settings on record: peptide eye ointment, control 15.0±7.6%. Here is the method: De-paraffinized tissue sections or 4% paraformaldehyde-fixed LSCs were blocked with 10% goat serum and 5% BSA in PBST (PBS containing 0.1% Tween-20) for 1 hour. Staining was done using primary antibodies against ΔNp63α (1:150 dilution), BrdU (1:250 dilution), and keratin-3 (1:250 dilution) at 37° C. for 2 hours, followed by incubation with the appropriate rhodamine- or FITC-conjugated donkey IgG (1:500 dilution) for 1 hour at RT. Nuclei were identified by counterstaining with Hoechst 33258 for 7 minutes. Images were captured using a Zeiss epifluorescence microscope with a CCD camera and photographs were taken by using the Axiovert software.
2×10^5 limbal cells (the 1st passage) were seeded at a slide coated with FNC COATING MIX® solution (Athena Enzyme Systems, Baltimore, Md.) and incubated with a culture medium for one day. BrdU (final, 10 μM) was added to the culture for 2 hours. […] DNA synthesis was assessed by BrdU labeling with anti-BrdU antibodies. […]
Each synthetic peptide (the 39-mer, 34-mer, 29-mer, 25-mer, 20-mer, 18-mer, Mo 29-mer or Mo 20-mer) was reconstituted in DMSO as stock (5 mM) and mixed with TOBREX® eye ointment (Alcon; containing 0.3% Tobramycin and 0.5% Chlorobutanol) to a concentration 50 μM. […] Wound size was determined by staining with topical fluorescein (Fluor-I-Strip, Ayerst Laboratories, Philadelphia, Pa.) and photographed with a digital camera. […]

With “SLGAEHRTESVIHRALYYDL [Mo 20-mer, synthetic peptide derived from mouse PEDF]”, the “BrdU-positive cells at basal layer of HE tissue, labeling index” value (from here on “BrdU-positive cells … labeling index”) in experiment [1] is recorded as 49.2±4.3%.
“SLGAEHRTESVIHRALYYDLITNPDIHST [Mo 29-mer, synthetic peptide derived from mouse PEDF]”: the “BrdU-positive cells … labeling index” value in experiment [1] was 52.5±2.5%.
“SLGAEQRTESIIHRALYYDL [20-mer, synthetic peptide identical to residues 11-30 of the 39-mer]”: in the experiment with Lgr6-positive HFSCs, the “Lgr6-positive cells at HE tissue versus control wound” value is “markedly increased”. Moreover, the “BrdU-positive cells … labeling index” value in experiment [1] was 53.1±6.5%. Also, in the experiment on LSCs in the limbus, the “levels of BrdU- and ΔNp63α-positive cells in the limbus” value came to 42.4±4.3%.
Take “SLGAEQRTESIIHRALYYDLISSPDIHGT [29-mer, short synthetic PEDF peptide derived from the 39-mer]”: the “BrdU-positive cells … labeling index” value in experiment [1] is on record as 47.9±5.0%. Moreover, in the experiment on LSCs in the limbus, the “levels of BrdU- and ΔNp63α-positive cells in the limbus” value turned out to be 43.2±4.6%.
